Assay results as given in patent US6765010B2, “Compositions and methods for enhancing analgesic potency of tramadol and attenuating its adverse side effects” (Pain Therapeutics, Inc., priority 1999, dated 2004).

Experiments:
[1] = test system: human subjects/patients with pain following dental surgery; assay: Dental surgery pain study: categorical pain intensity difference (PID, SPID); assay type: in vivo; settings: LOCF; for Hourly Pain Intensity Difference (PID) score, Mean / Hourly Pain Intensity Difference (PID) score, Median: ITT subjects, PID as numerical variable
[2] = test system: human subjects/patients with pain following dental surgery; assay: Dental surgery pain study: adverse events
[3] = ITT, counted once per subject (Table 15)
[4] = Severity = Moderate, ITT subjects

COc1cccc([C@@]2(O)CCCC[C@@H]2CN(C)C)c1.Cl (racemic) [tramadol, (1RS,2RS)-2[(dimethylamino)-methyl]-1-(3-methoxyphenyl)-cyclohexanol HCL]
Hourly Pain Intensity Difference (PID) score, Mean ([1]; Hour 0.5): −0.22 | Hourly Pain Intensity Difference (PID) score, Median ([1]; Hour 0.5): 0 | Hourly Pain Intensity Difference (PID) score, Mean ([1]; Hour 1): −0.30 | Hourly Pain Intensity Difference (PID) score, Median ([1]; Hour 1): 0 | Hourly Pain Intensity Difference (PID) score, Mean ([1]; Hour 2): −0.06 | Hourly Pain Intensity Difference (PID) score, Median ([1]; Hour 2): 0 | Hourly Pain Intensity Difference (PID) score, Mean ([1]; Hour 3): −0.06 | Hourly Pain Intensity Difference (PID) score, Median ([1]; Hour 3): 0 | Hourly Pain Intensity Difference (PID) score, Mean ([1]; Hour 4): 0.06 | Hourly Pain Intensity Difference (PID) score, Median ([1]; Hour 4): 0 | Hourly Pain Intensity Difference (PID) score, Mean ([1]; Hour 5): 0.00 | Hourly Pain Intensity Difference (PID) score, Median ([1]; Hour 5): 0 | Hourly Pain Intensity Difference (PID) score, Mean ([1]; Hour 6): 0.04 | Hourly Pain Intensity Difference (PID) score, Median ([1]; Hour 6): 0 | Hourly Pain Intensity Difference (PID) score, Mean ([1]; Hour 7): −0.02 | Hourly Pain Intensity Difference (PID) score, Median ([1]; Hour 7): 0 | Hourly Pain Intensity Difference (PID) score, Mean ([1]; Hour 8): 0.02 | Hourly Pain Intensity Difference (PID) score, Median ([1]; Hour 8): 0 | SPID up to 4 Hours, Mean ([1]; ITT, single oral dose): −0.58 | SPID up to 4 Hours, Median ([1]; ITT, single oral dose): 0 | SPID up to 6 Hours, Mean ([1]; ITT, single oral dose): −0.54 | SPID up to 6 Hours, Median ([1]; ITT, single oral dose): 0 | SPID up to 8 Hours, Mean ([1]; ITT, single oral dose): −0.54 | SPID up to 8 Hours, Median ([1]; ITT, single oral dose): 0 | Adverse events: Number (%) with Events ([2]; ITT, Severity = Severe): 3 (6.0%) n (%) | Adverse events: Number of Events ([2]; ITT, Severity = Severe): 3 events | Gastrointestinal Disorders, frequency (percentage) ([2]; ITT, Severity = Severe): 2 (4.0%) n (%) | Gastrointestinal Disorders, occurrence ([2]; ITT, Severity = Severe): 2 events | Headache Nos, frequency (percentage) ([2]; ITT, Severity = Severe): 1 (2.0%) n (%) | Headache Nos, occurrence ([2]; ITT, Severity = Severe): 1 events | Nausea, frequency (percentage) ([2]; ITT, Severity = Severe): 2 (4.0%) n (%) | Nausea, occurrence ([2]; ITT, Severity = Severe): 2 events | Nervous System Disorders, frequency (percentage) ([2]; ITT, Severity = Severe): 1 (2.0%) n (%) | Nervous System Disorders, occurrence ([2]; ITT, Severity = Severe): 1 events | Vomiting Nos, frequency (percentage) ([2]; ITT, Severity = Severe): 1 (2.0%) n (%) | Vomiting Nos, occurrence ([2]; ITT, Severity = Severe): 1 events | Adverse events: Number (%) with Events ([2]; ITT, all severities): 40 (80%) n (%) | Adverse events: Number of Events ([2]; ITT, all severities): 134 events | Dizziness (Exc Vertigo), frequency (percentage) ([2]; ITT, all severities): 15 (30.0%) n (%) | Dizziness (Exc Vertigo), occurrence ([2]; ITT, all severities): 19 events | Gastrointestinal Disorders, frequency (percentage) ([2]; ITT, all severities): 20 (40.0%) n (%) | Gastrointestinal Disorders, occurrence ([2]; ITT, all severities): 40 events | Headache Nos, frequency (percentage) ([2]; ITT, all severities): 28 (56.0%) n (%) | Headache Nos, occurrence ([2]; ITT, all severities): 38 events | Nausea, frequency (percentage) ([2]; ITT, all severities): 20 (40.0%) n (%) | Nausea, occurrence ([2]; ITT, all severities): 28 events | Nervous System Disorders, frequency (percentage) ([2]; ITT, all severities): 40 (80.0%) n (%) | Nervous System Disorders, occurrence ([2]; ITT, all severities): 89 events | Pruritus Nos, frequency (percentage) ([2]; ITT, all severities): 2(4.0%) n (%) | Pruritus Nos, occurrence ([2]; ITT, all severities): 2 events | Sedation, frequency (percentage) ([2]; ITT, all severities): 28 (56.0%) n (%) | Sedation, occurrence ([2]; ITT, all severities): 32 events | Skin & Subcutaneous Tissue Disorders, frequency (percentage) ([2]; ITT, all severities): 2 (4.0%) n (%) | Skin & Subcutaneous Tissue Disorders, occurrence ([2]; ITT, all severities): 2 events | Vomiting Nos, frequency (percentage) ([2]; ITT, all severities): 10 (20.0%) n (%) | Vomiting Nos, occurrence ([2]; ITT, all severities): 12 events | Incidence of Nausea, No [2, 3]: 30 (60.0%) n (%) | Incidence of Nausea, Yes [2, 3]: 20 (40.0%) n (%) | Incidence of Vomiting Nos, No [2, 3]: 40 (80.0%) n (%) | Incidence of Vomiting Nos, Yes [2, 3]: 10 (20.0%) n (%) | Dizziness (Exc Vertigo), frequency (subjects) ([2]; Severity = Mild, ITT subjects): 12 | Dizziness (Exc Vertigo), occurrence (events) ([2]; Severity = Mild, ITT subjects): 16 | Dizziness (Exc Vertigo), percentage of subjects ([2]; Severity = Mild, ITT subjects): 24.0% | Gastrointestinal Disorders, frequency (subjects) ([2]; Severity = Mild, ITT subjects): 6 | Gastrointestinal Disorders, occurrence (events) ([2]; Severity = Mild, ITT subjects): 15 | Gastrointestinal Disorders, percentage of subjects ([2]; Severity = Mild, ITT subjects): 12.0% | Headache Nos, frequency (subjects) ([2]; Severity = Mild, ITT subjects): 17 | Headache Nos, occurrence (events) ([2]; Severity = Mild, ITT subjects): 26 | Headache Nos, percentage of subjects ([2]; Severity = Mild, ITT subjects): 34.0% | Nausea, frequency (subjects) ([2]; Severity = Mild, ITT subjects): 9 | Nausea, occurrence (events) ([2]; Severity = Mild, ITT subjects): 14 | Nausea, percentage of subjects ([2]; Severity = Mild, ITT subjects): 18.0% | Nervous System Disorders, frequency (subjects) ([2]; Severity = Mild, ITT subjects): 23 | Nervous System Disorders, occurrence (events) ([2]; Severity = Mild, ITT subjects): 66 | Nervous System Disorders, percentage of subjects ([2]; Severity = Mild, ITT subjects): 46.0% | Number of Events ([2]; Severity = Mild, ITT subjects): 84 | Number of subjects with adverse events ([2]; Severity = Mild, ITT subjects): 15 | Percentage of subjects with adverse events ([2]; Severity = Mild, ITT subjects): 30.0% | Pruritus Nos, frequency (subjects) ([2]; Severity = Mild, ITT subjects): 2 | Pruritus Nos, occurrence (events) ([2]; Severity = Mild, ITT subjects): 2 | Pruritus Nos, percentage of subjects ([2]; Severity = Mild, ITT subjects): 4.0% | Sedation, frequency (subjects) ([2]; Severity = Mild, ITT subjects): 21 | Sedation, occurrence (events) ([2]; Severity = Mild, ITT subjects): 24 | Sedation, percentage of subjects ([2]; Severity = Mild, ITT subjects): 42.0% | Skin & Subcutaneous Tissue Disorders, frequency (subjects) ([2]; Severity = Mild, ITT subjects): 2 | Skin & Subcutaneous Tissue Disorders, occurrence (events) ([2]; Severity = Mild, ITT subjects): 2 | Skin & Subcutaneous Tissue Disorders, percentage of subjects ([2]; Severity = Mild, ITT subjects): 4.0% | Vomiting Nos, frequency (subjects) ([2]; Severity = Mild, ITT subjects): 3 | Vomiting Nos, occurrence (events) ([2]; Severity = Mild, ITT subjects): 4 | Vomiting Nos, percentage of subjects ([2]; Severity = Mild, ITT subjects): 6.0% | Dizziness (Exc Vertigo), frequency (subjects) [2, 4]: 3 | Dizziness (Exc Vertigo), occurrence (events) [2, 4]: 3 | Dizziness (Exc Vertigo), percentage of subjects [2, 4]: 6.0% | Gastrointestinal Disorders, frequency (subjects) [2, 4]: 12 | Gastrointestinal Disorders, occurrence (events) [2, 4]: 23 | Gastrointestinal Disorders, percentage of subjects [2, 4]: 24.0% | Headache Nos, frequency (subjects) [2, 4]: 10 | Headache Nos, occurrence (events) [2, 4]: 11 | Headache Nos, percentage of subjects [2, 4]: 20.0% | Nausea, frequency (subjects) [2, 4]: 10 | Nausea, occurrence (events) [2, 4]: 13 | Nausea, percentage of subjects [2, 4]: 20.0% | Nervous System Disorders, frequency (subjects) [2, 4]: 16 | Nervous System Disorders, occurrence (events) [2, 4]: 22 | Nervous System Disorders, percentage of subjects [2, 4]: 32.0% | Number of Events [2, 4]: 47 | Number of subjects with adverse events [2, 4]: 22 | Percentage of subjects with adverse events [2, 4]: 44.0% | Sedation, frequency (subjects) [2, 4]: 7 | Sedation, occurrence (events) [2, 4]: 8 | Sedation, percentage of subjects [2, 4]: 14.0% | Vomiting Nos, frequency (subjects) [2, 4]: 9 | Vomiting Nos, occurrence (events) [2, 4]: 10 | Vomiting Nos, percentage of subjects [2, 4]: 18.0%
